Holding throughout (assay): inhibition of tumour cell growth, NCI panel, 48 h
Test [1] relates to UACC-257.
Test [2] has as its system KM-20L2.
Test [3] has as its system SW-620.
For test [4], the system named is HT-29.
Test [5] has as its system SK-MEL-2.
The subject of test [6] is SF-295.
Test [7] has as its system LOX IMVI.
The test system of test [8] is SK-MEL-5.
Test [9] concerns IGROV-1.
Test [10] deals with SF-268.
The test system of test [11] is SK-MEL-28.
For test [12], the system named is COLO 205.
Test [13] deals with KM12.
Test [14] has as its system ACHN.
The test system of test [15] is A498.
Test [16] relates to SK-OV-3.
The test system of test [17] is NCI-H23.
For test [18], the system named is PC-3.
For test [19], the system named is BT-549.
The subject of test [20] is MDA-MB-231.

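Method: 48-hour compound exposure of cells in 96-well plates, five concentrations, linear interpolation of endpoints. Here, GI50 denotes the concentration required for 50% inhibition of growth.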 The source made the active and inactive calls. Rule as the data show it: active = GI50 up to about 1.1 µM and inactive = higher. Where only a bound is given, the exact number is not on record here.

Regarding `O=C(N/C(=C\c1ccc2c(c1)OCO2)c1nc2ccccc2[nH]1)c1ccccc1`, the GI50 in test [1] is 19.6 µM (inactive); in test [2], 33.7 µM (inactive); in [3] it was 33.6 µM (inactive); in test [4], 4.98 µM (inactive); in [5], 26.4 µM (inactive); in [6] it was 43.7 µM (inactive). Also, the GI50 in [7] was 38.5 µM (inactive); in test [8], 16 µM (inactive); in test [9], 27.7 µM (inactive); in test [10], 38.2 µM (inactive); in test [11], 17.6 µM (inactive); in [12] it was 25.1 µM (inactive). The GI50 in test [13] was 32.7 µM (inactive); in test [14], 33.3 µM (inactive); in [15] it was 33.1 µM (inactive); in test [16] it was 35.6 µM (inactive); in test [17] it was 18.6 µM (inactive).
On to `CCCCCNC(=O)C1C(=O)N(CCCCC)C(=O)/C1=N\N` (stereo not drawn), for which the GI50 is > 100 µM (inactive) in test [1]; 48.6 µM (inactive) in [2]; 79.3 µM (inactive) in [3]; 83.8 µM (inactive) in test [4]; 35.2 µM (inactive) in test [5]; 30.5 µM (inactive) in test [6]. Also, the GI50 was 29 µM (inactive) in [8]; 53 µM (inactive) in test [9]; 63.8 µM (inactive) in test [10]; 62.8 µM (inactive) in test [11]; > 100 µM (inactive) in test [12]; 53.2 µM (inactive) in [13]. Moreover, the GI50 in test [14] is 59.8 µM (inactive); in [15] it was > 100 µM (inactive); in [17] it was 47.5 µM (inactive).
For the molecule `CC(=O)OCC(OC(C)=O)C(OC(C)=O)C(OC(C)=O)C(=O)CNn1c(-c2ccc(C)cc2)nc2ccccc2c1=O` (stereo not drawn), the GI50 in [1], in test [2], in [3], in test [4], in [5] and in test [6] was > 100 µM (inactive) in each case. Besides, the GI50 in test [7], in test [8], in [10], in [11], in [12] and in test [13] was > 100 µM (inactive) each time. In addition, the GI50 in test [14], in [15], in [16] and in test [17] was > 100 µM (inactive) throughout.
As for `CCOC(=O)C1C(c2ccc(Br)cc2)N(Cc2ccccc2)C(c2ccc(Br)cc2)C(C(=O)OC)S1(=O)=O` (stereo not drawn), the GI50 was 24.9 µM (inactive) in [1]; > 100 µM (inactive) in test [2]; > 100 µM (inactive) in test [3]; 66.8 µM (inactive) in test [4]; > 100 µM (inactive) in test [5]; 35.4 µM (inactive) in test [6]. Besides, the GI50 in test [7] is > 100 µM (inactive); in [9], > 100 µM (inactive); in [10], 39.6 µM (inactive); in test [11], 53.3 µM (inactive); in test [12] it was > 100 µM (inactive); in test [13], > 100 µM (inactive). The GI50 in test [14] is 93.5 µM (inactive); in [16], > 100 µM (inactive); in [17], > 100 µM (inactive).
`N#Cc1ccccc1NC(=O)c1ccccc1`: the GI50 in test [1], in [2], in test [3], in test [4], in [5] and in test [6] was > 100 µM (inactive) throughout. In addition, the GI50 in [7], in [8], in test [9], in test [10], in test [11] and in test [12] was > 100 µM (inactive) throughout. In addition, the GI50 in test [13], in [14], in test [15] and in test [17] was > 100 µM (inactive) each time.
As to `O=C1NC(=O)C(=Cc2c3ccccc3cc3ccccc23)C(=O)N1`, the GI50 in test [2] is > 100 µM (inactive); in [3] it was > 100 µM (inactive); in test [4] it was 55.1 µM (inactive); in [7], > 100 µM (inactive); in test [8] it was > 100 µM (inactive); in [9] it was > 100 µM (inactive). Further, the GI50 in test [10], in test [11], in [12], in [14], in test [15] and in [16] was > 100 µM (inactive) in each case. The GI50 in test [17] was > 100 µM (inactive).
With `CCCNC(=O)C(C)(Cl)C(=O)c1ccccc1O` (stereo not drawn), the GI50 in test [1], in test [2], in test [3], in test [5], in test [8] and in test [9] was > 100 µM (inactive) throughout. The GI50 in test [10], in test [11], in [12], in [13], in [14] and in test [15] was > 100 µM (inactive) throughout. Besides, the GI50 in test [16] was > 100 µM (inactive).
Consider `COC(=O)[C@@H]1CSC(=S)N1C(=O)C[C@H]1CC=CC[C@H]1CC(=O)Sc1ccccc1`, for which the GI50 was 18.5 µM (inactive) in [1]; 20.9 µM (inactive) in test [2]; 17.4 µM (inactive) in test [3]; 19.8 µM (inactive) in [4]; 22.2 µM (inactive) in [5]; 22 µM (inactive) in [6]. Further, the GI50 in [7] was 17.7 µM (inactive); in test [9], 19.8 µM (inactive); in test [10], 15.1 µM (inactive); in test [11], 16.4 µM (inactive); in test [12], 19.5 µM (inactive); in [13], 15.1 µM (inactive). Further, the GI50 was 17.6 µM (inactive) in [14], 27.8 µM (inactive) in test [16] and 21 µM (inactive) in test [17].
Consider `O=C1NC(=O)C(C(=O)C(=O)Nc2cccc(C(F)(F)F)c2)C(=O)N1`, for which the GI50 is 53 µM (inactive) in test [1]; > 100 µM (inactive) in test [2]; > 100 µM (inactive) in test [3]; > 100 µM (inactive) in test [5]; > 100 µM (inactive) in test [7]; > 100 µM (inactive) in test [8]. In addition, the GI50 in test [9], in test [10], in [11], in [12], in test [13] and in [14] was > 100 µM (inactive) throughout. The GI50 in test [15], in test [16] and in [17] was > 100 µM (inactive) throughout.
In the case of `O=C1CC2CCN(C(=O)c3ccccc3)CC2CCN1.O=C1CCC2CC(C(=O)c3ccccc3)CCC2CN1` (stereo not drawn), the GI50 in test [1], in [2], in test [3], in [4], in [5] and in test [6] was > 100 µM (inactive) throughout. The GI50 in test [8] was 42.6 µM (inactive); in [9] it was > 100 µM (inactive); in [10], > 100 µM (inactive); in test [11], > 100 µM (inactive); in test [12] it was > 100 µM (inactive); in test [13], > 100 µM (inactive). Besides, the GI50 in test [14], in test [16] and in [17] was > 100 µM (inactive) each time.
In the case of `COC(=O)C1(Cc2ccccc2C)Cc2ccc(C)cc2C1=O` (stereo not drawn), the GI50 in test [1] is 29.4 µM (inactive); in test [3], 45 µM (inactive); in test [18], 25.7 µM (inactive); in test [4], 16.7 µM (inactive); in [5], 21.2 µM (inactive); in test [6], 34.4 µM (inactive). In addition, the GI50 in [7] is 19.7 µM (inactive); in [8], 16.9 µM (inactive); in test [9], 70.5 µM (inactive); in test [10] it was 69.7 µM (inactive); in [19], 49.1 µM (inactive); in [11] it was 79.8 µM (inactive). Besides, the GI50 in [20] was 42.2 µM (inactive); in test [12], 19.5 µM (inactive); in [13] it was 31.2 µM (inactive); in test [14], 34.9 µM (inactive); in test [15], 31.3 µM (inactive); in [16], 55.2 µM (inactive). Further, in test [17], the GI50 is 26.4 µM (inactive).
As for `C=C1CC(COc2ccc3c(C)cc(=O)oc3c2)(c2ccccc2)OC1=O` (stereo not drawn), the GI50 in [1] is 1.83 µM (inactive); in test [3], 0.646 µM (active); in test [18], 2.2 µM (inactive); in [4], 1.29 µM (inactive); in test [5] it was 1.4 µM (inactive); in [6], 6.85 µM (inactive). For the same molecule, the GI50 was 1.26 µM (inactive) in test [7]; 2.2 µM (inactive) in test [8]; 1.84 µM (inactive) in test [9]; 5.33 µM (inactive) in [10]; 1.74 µM (inactive) in test [19]; 2.41 µM (inactive) in test [11]. The GI50 in [20] is 2.74 µM (inactive); in test [12], 1.34 µM (inactive); in [13] it was 5.47 µM (inactive); in [14], 3.37 µM (inactive); in test [15], 2.64 µM (inactive); in test [16], 4.17 µM (inactive). Moreover, in [17], the GI50 is 2.34 µM (inactive).

The values above are taken from ChEMBL document CHEMBL1201862, “PubChem BioAssay data set” (2004).
